# Legend:
# ROCK1 = ROCK1 (Homo sapiens (Human), UniProt Q13464); experiment: ROCK1 kinase inhibition assay (LABCHIP peptide phosphorylation); type: biochemical; details: 5 μM ATP, 3 nM ROCK1, 3 hours at 25° C.
# Method: (§1) The peptide is >98% purity by Capillary Electrophoresis. The peptide is phosphorylated by the protein kinase ROCK1 or ROCK2. The ROCK1 or ROCK2 enzyme, substrate, and cofactors (ATP and Mg^2+) are combined in a well of a microtiter plate and incubated for 3 hours at 25° C. At the end of the incubation, the reaction is quenched by the addition of an EDTA-containing buffer. The substrate and product are separated and quantified electrophoretically using the microfluidic-based LABCHIP® 3000 Drug Discovery System from Caliper Life Sciences (Hopkinton, Mass.).
# (§2) Substrate and product peptides present in each sample are separated electrophoretically using the LABCHIP® 3000 capillary electrophoresis instrument. […] Change in the relative fluorescence intensity of the substrate and product peaks is the parameter measured reflecting enzyme activity. Capillary electrophoregramms (RDA acquisition files) are analyzed using HTS Well Analyzer software (Caliper Life Sciences, Hopkinton, Mass.). The kinase activity in each sample is determined as the product to sum ratio (PSR): P/(S+P), where P is the peak height of the product peptide and S is the peak height of the substrate peptide. For each compound, enzyme activity is measured at various concentrations (12 concentrations of compound spaced by 3× dilution intervals). Negative control samples (0%-inhibition in the absence of inhibitor) and positive control samples (100%-inhibition in the presence of 20 mM EDTA) are assembled in replicates of four and are used to calculate %-inhibition values for each compound at each concentration. Percent inhibition (Pinh) is determined using the following equation: Pinh=(PSR0%−PSRinh)/(PSR0%−PSR100%)*100 where PSRinh is the product sum ratio in the presence of inhibitor, PSR/% is the average product sum ratio in the absence of inhibitor, and PSR100% is the average product sum ratio in 100%-inhibition control samples. The IC50 values of inhibitors are determined by fitting the inhibition curves (Pinh versus inhibitor concentration) by 4 parameter sigmoidal dose-response model using XLfit 4 software (IBDS).
# ROCK2 = ROCK2 (Homo sapiens (Human), UniProt O75116); experiment: ROCK2 kinase inhibition assay (LABCHIP peptide phosphorylation); type: biochemical; details: 7 μM ATP, 2.5 nM ROCK2, 3 hours at 25° C.
# Method: as §1, §2
# K562 cell line = experiment: Cell viability assay ([…]-GLO), K562; type: cell-based; details: Homo sapiens; K562 (does not express ITD-FLT3), 72 hours treatment
# Method: (§3) Cell viability in the presence of varying concentrations of the above listed compounds at different time points was used to assess cytotoxicity and the effect of the compounds on cell proliferation.
# (§4) Cell viability was measured by the […]-GlO® cell viability assay from Promega (Madison, Wis.). The […]-GlO® Luminescent Cell Viability Assay is a homogeneous method to determine the number of viable cells in culture based on quantitation of the ATP present, which signals the presence of metabolically active cells. Following treatment, […]-GlO® is added to treatment wells and incubated at 37° C. luminescence values were measured at using a Molecular Devices Spectramax microplate reader.
# Cells were grown to 70% confluency, trypsinized, counted, and seeded in 96 well flat-bottom plates at a final concentration of 2.5×10^3-5×10^3 cells/well (Day 0). Cells were allowed to incubate in growth media for 24 hours. Treatment with the test agents or standard agents began on Day 1 and continued for 72 hours. At the 72-hour time point, treatment containing media was removed. Viable cell numbers were quantified by the […]-GLO® cell viability assay as described above. Results from these studies were used to calculate an IC50 value (concentration of drug that inhibits cell growth by 50 percent of control) for each compound.
# For single agent and combination studies, data from each experiment was collected and expressed as % Cell Growth using the following calculation: % Cell Growth=(ftest/fvehicle)×100 Where ftest is the luminescence of the tested sample, and fvehicle is the luminescence of the vehicle in which the drug is dissolved. Dose response graphs and IC50 values were generated using Prism 6 software (GraphPad) using the following equation: Y=(Top−Bottom/(1+10^((logIC50−X)−HillSlope)) Where X is the logarithm of the concentration and Y is the response. Y starts at the Bottom and goes to the Top with a sigmoid shape. […]
# MV411 cell line = experiment: Cell viability assay ([…]-GLO), MV411; type: cell-based; details: for IC50: Homo sapiens, MV4-11, MV411 (ITD-FLT3+), 72 hours treatment; for FLT3-ITD+ Selectivity (K562/MV411): ratio of K562 to MV411 IC50
# Method: as §3, §4
# Cells were grown to 70% confluency, trypsinized, counted, and seeded in 96 well flat-bottom plates at a final concentration of 2.5×10^3-5×10^3 cells/well (Day 0). Cells were allowed to incubate in growth media for 24 hours. Treatment with the test agents or standard agents began on Day 1 and continued for 72 hours. At the 72-hour time point, treatment containing media was removed.
# For single agent and combination studies, data from each experiment was collected and expressed as % Cell Growth using the following calculation: % Cell Growth=(ftest/fvehicle)×100 Where ftest is the luminescence of the tested sample, and fvehicle is the luminescence of the vehicle in which the drug is dissolved. Dose response graphs and IC50 values were generated using Prism 6 software (GraphPad) using the following equation: Y=(Top−Bottom/(1+10^((logIC50−X)−HillSlope)) Where X is the logarithm of the concentration and Y is the response. Y starts at the Bottom and goes to the Top with a sigmoid shape.
# The experiments also evaluated the selectivity of the compounds for inhibiting growth of cancer cells carrying a mutation in the Flt3 gene. The MV411 cell line expresses the mutant allele of Flt3 with internal tandem duplications (ITD) of the gene. See Quentmeier et al., “FLT3 Mutations in Acute Myeloid Leukemia Cell Lines,” Leukemia 17(1), 2003, 120-124. […] See Grafone et al., “Monitoring of FLT3 Phosphorylation Status and Its Response to Drugs By Flow Cytometry in AML Blast Cells,” Hematol Oncol. 26(3), 2008, 159-166. Patients with ITD-FLT3^+ acute myeloid leukemia (AML) experience an extremely poor prognosis.
# Sequence of ROCK2 (O75116 whole entry): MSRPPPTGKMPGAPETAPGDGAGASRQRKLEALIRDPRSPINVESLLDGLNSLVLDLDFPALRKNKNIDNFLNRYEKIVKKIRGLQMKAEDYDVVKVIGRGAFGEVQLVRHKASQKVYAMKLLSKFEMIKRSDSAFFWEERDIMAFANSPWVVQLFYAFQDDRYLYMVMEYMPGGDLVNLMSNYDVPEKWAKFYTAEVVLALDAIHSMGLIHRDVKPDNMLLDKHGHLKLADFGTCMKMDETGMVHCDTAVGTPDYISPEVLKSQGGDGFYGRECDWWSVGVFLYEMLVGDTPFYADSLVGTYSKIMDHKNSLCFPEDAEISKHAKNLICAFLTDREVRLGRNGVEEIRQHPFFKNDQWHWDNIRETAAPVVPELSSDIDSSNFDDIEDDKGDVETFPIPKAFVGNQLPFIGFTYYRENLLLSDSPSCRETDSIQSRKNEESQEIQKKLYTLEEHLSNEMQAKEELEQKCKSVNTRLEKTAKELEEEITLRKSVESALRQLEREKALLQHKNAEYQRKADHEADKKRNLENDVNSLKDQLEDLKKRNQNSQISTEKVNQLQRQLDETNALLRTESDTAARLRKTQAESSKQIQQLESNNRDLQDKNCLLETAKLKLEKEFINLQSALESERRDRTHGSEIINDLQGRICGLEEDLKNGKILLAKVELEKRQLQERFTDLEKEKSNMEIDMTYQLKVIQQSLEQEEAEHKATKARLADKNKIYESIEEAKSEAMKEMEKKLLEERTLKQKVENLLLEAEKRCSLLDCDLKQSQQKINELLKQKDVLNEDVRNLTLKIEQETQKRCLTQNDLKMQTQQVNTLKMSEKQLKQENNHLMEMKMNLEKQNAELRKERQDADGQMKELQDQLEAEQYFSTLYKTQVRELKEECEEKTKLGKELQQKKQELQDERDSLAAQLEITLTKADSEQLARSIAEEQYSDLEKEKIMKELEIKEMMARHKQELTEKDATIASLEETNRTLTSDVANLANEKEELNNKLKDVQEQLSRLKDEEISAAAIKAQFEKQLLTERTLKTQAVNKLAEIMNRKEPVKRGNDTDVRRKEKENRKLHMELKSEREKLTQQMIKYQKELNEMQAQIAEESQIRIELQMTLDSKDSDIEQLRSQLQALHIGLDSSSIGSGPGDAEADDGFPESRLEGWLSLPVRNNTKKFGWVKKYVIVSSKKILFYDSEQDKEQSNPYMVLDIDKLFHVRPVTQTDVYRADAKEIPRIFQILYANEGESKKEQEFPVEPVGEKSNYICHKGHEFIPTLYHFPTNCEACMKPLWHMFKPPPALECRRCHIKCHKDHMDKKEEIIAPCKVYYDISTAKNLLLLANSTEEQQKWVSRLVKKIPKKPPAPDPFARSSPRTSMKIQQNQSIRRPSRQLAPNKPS
# Sequence of ROCK1 (Q13464 whole entry): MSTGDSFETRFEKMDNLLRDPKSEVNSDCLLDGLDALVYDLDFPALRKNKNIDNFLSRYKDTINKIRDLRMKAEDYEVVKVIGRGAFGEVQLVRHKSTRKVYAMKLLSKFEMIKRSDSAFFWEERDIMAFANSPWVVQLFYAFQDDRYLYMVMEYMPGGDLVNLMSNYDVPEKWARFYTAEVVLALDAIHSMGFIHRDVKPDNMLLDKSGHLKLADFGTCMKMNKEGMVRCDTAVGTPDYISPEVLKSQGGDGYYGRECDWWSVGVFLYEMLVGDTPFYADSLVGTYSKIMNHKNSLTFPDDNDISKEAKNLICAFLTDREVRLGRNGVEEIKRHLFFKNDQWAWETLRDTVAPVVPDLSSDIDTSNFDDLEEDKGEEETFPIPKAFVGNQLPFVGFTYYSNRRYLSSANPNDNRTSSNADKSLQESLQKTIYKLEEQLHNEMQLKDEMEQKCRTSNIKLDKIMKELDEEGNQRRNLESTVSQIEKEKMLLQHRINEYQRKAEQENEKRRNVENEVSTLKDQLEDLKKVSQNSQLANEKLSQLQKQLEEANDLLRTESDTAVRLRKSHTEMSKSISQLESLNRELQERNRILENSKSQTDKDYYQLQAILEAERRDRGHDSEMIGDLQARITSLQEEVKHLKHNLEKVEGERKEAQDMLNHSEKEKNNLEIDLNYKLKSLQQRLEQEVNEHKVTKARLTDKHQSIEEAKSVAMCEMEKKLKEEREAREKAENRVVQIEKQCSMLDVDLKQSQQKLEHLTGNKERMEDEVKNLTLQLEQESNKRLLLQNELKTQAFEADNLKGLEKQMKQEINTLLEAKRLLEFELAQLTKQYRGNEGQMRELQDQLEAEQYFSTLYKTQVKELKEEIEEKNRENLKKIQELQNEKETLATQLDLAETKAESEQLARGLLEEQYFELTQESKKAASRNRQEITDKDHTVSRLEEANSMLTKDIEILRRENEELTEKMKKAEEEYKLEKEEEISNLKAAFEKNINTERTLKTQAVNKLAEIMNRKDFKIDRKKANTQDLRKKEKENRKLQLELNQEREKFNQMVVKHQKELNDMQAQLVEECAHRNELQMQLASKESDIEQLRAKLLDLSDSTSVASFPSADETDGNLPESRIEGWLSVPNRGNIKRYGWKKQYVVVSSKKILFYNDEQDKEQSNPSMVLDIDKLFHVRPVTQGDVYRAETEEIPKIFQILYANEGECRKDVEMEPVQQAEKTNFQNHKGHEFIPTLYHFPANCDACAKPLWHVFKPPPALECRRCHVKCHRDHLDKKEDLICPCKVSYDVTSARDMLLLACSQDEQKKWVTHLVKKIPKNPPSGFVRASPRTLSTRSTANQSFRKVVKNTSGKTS
smiles,measurement,setting,value
COc1cccc(CNC(=O)Nc2cc(-c3ccncc3)[nH]n2)c1F [Compound 48],IC50,ROCK1,6400 nM
same,IC50,ROCK2,1870 nM
COc1cccc(CN(CCO)C(=O)Nc2cc(-c3ccncc3)[nH]n2)c1 [Compound 9],IC50,K562 cell line,97.2 µM
same,IC50,ROCK1,237 nM
same,IC50,MV411 cell line,39.8 µM
same,FLT3-ITD+ Selectivity (K562/MV411),MV411 cell line,2
same,IC50,ROCK2,39.1 nM
COc1cccc(CNC(=O)Nc2cnn(-c3ccncc3)c2)c1 [Compound 25],IC50,K562 cell line,85 µM
same,IC50,ROCK1,130 nM
same,IC50,MV411 cell line,34 µM
same,FLT3-ITD+ Selectivity (K562/MV411),MV411 cell line,3
same,IC50,ROCK2,28.7 nM
COCCOc1cccc(CNC(=O)Nc2cc(-c3ccncc3)[nH]n2)c1 [Compound 51],IC50,K562 cell line,> 100 µM
same,IC50,MV411 cell line,17 µM
same,FLT3-ITD+ Selectivity (K562/MV411),MV411 cell line,>6
COc1cc(CNC(=O)Nc2cc(-c3ccncc3)[nH]n2)ccc1F [Compound 47],IC50,K562 cell line,17.8 µM
same,IC50,MV411 cell line,7.8 µM
same,FLT3-ITD+ Selectivity (K562/MV411),MV411 cell line,2
COc1cccc(CN(CCN(C)C)C(=O)Nc2cc(-c3ccncc3)[nH]n2)c1 [Compound 11],IC50,K562 cell line,> 100 µM
same,IC50,ROCK1,63.6 nM
same,IC50,MV411 cell line,14.5 µM
same,FLT3-ITD+ Selectivity (K562/MV411),MV411 cell line,>7
same,IC50,ROCK2,22.1 nM
COc1cccc(CNC(=O)c2cc3ccc(-c4cn[nH]c4)nc3s2)c1 [Compound 40],IC50,K562 cell line,> 100 µM
same,IC50,ROCK1,65.1 nM
same,IC50,MV411 cell line,7.1 µM
same,FLT3-ITD+ Selectivity (K562/MV411),MV411 cell line,>14
same,IC50,ROCK2,17.4 nM
COc1ccc(OC)c(CNC(=O)Nc2cc(-c3ccncc3)n[nH]2)c1 [Compound 54],IC50,K562 cell line,> 100 µM
same,IC50,MV411 cell line,12.6 µM
same,FLT3-ITD+ Selectivity (K562/MV411),MV411 cell line,>8
COc1cc(F)cc(CNC(=O)Nc2cc(-c3ccncc3)[nH]n2)c1 [Compound 49],IC50,K562 cell line,17.8 µM
same,IC50,MV411 cell line,7.8 µM
same,FLT3-ITD+ Selectivity (K562/MV411),MV411 cell line,2
COc1cccc(CNC(=O)Nc2cc(-c3ccncc3)[nH]n2)c1 [Compound 5],IC50,K562 cell line,43.6 µM
same,IC50,ROCK1,73 nM
same,IC50,MV411 cell line,10.2 µM
same,FLT3-ITD+ Selectivity (K562/MV411),MV411 cell line,4
same,IC50,ROCK2,16.1 nM
COc1cccc(CN(C)C(=O)Nc2cc(-c3ccncc3)[nH]n2)c1 [Compound 7],IC50,K562 cell line,89.1 µM
same,IC50,ROCK1,102 nM
same,IC50,MV411 cell line,7.6 µM
same,FLT3-ITD+ Selectivity (K562/MV411),MV411 cell line,12
same,IC50,ROCK2,22.9 nM
O=C(NCc1cccc(O)c1)Nc1cc(-c2ccncc2)[nH]n1 [Compound 3],IC50,K562 cell line,> 100 µM
same,IC50,MV411 cell line,43.7 µM
same,FLT3-ITD+ Selectivity (K562/MV411),MV411 cell line,>2
"Cc1c[nH]c2nccc(Oc3c(F)cc(Nc4cc(Cl)nc(N)n4)cc3F)c12 [Compound A, reference compound]",IC50,K562 cell line,0.8 µM
same,IC50,MV411 cell line,0.7 µM
COc1cccc([C@@H](C)NC(=O)N(C)c2cc(-c3ccncc3)n[nH]2)c1 [Compound 53],IC50,K562 cell line,64.6 µM
same,IC50,MV411 cell line,93.3 µM
same,FLT3-ITD+ Selectivity (K562/MV411),MV411 cell line,1
COc1ccc(F)c(CNC(=O)Nc2cc(-c3ccncc3)[nH]n2)c1 [Compound 50],IC50,K562 cell line,> 100 µM
same,IC50,ROCK1,1010 nM
same,IC50,MV411 cell line,7.8 µM
same,FLT3-ITD+ Selectivity (K562/MV411),MV411 cell line,>13
same,IC50,ROCK2,239 nM
COc1cccc([C@@H](C)NC(=O)Nc2cc(-c3ccncc3)n[nH]2)c1 [Compound 52],IC50,K562 cell line,> 100 µM
same,IC50,ROCK1,34 nM
same,IC50,MV411 cell line,11.2 µM
same,FLT3-ITD+ Selectivity (K562/MV411),MV411 cell line,>9
same,IC50,ROCK2,8.7 nM
O=C(N[C@H](CO)c1cccc(F)c1)c1cc(-c2ccncc2)[nH]n1 [Compound 1],IC50,K562 cell line,> 100 µM
same,IC50,ROCK1,207 nM
same,IC50,MV411 cell line,67.6 µM
same,FLT3-ITD+ Selectivity (K562/MV411),MV411 cell line,>1
same,IC50,ROCK2,98 nM

# Reference: patent US10392402B2, “Heterocyclic compounds as kinase inhibitors” (TRANSLATIONAL DRUG DEVELOPMENT LLC, priority 2015, dated 2019)
